Results published in patent publication US9447056B2, “Solid forms of epalrestat” (Bionevia Pharmaceuticals, Inc., priority 2008, dated 2016).

Test: Solid-form stability on compression into a disk (XRPD)
Type: physicochemical
Conditions: compressed into a disk at 3400 pounds of pressure (117 MPa) for 1 minute, Carver hydraulic press and pellet die
Description: In various embodiments, the novel betaine cocrystal of epalrestat described herein is stable.

Q: Which “change in XRPD pattern after compression” value does the source give for “betaine hydrogen diepalrestat [betaine hydrogen diacid cocrystal]” here?
A: no change in the XRPD pattern
